What was measured:
Assay type in all cases: physicochemical
[1] = Xenon light stress test of bulk (HPLC degradation products, color, XRPD); design: key to CL color: A: No change; B: Slight discoloration; C: Medium discoloration; D: Strong discoloration; conditions: Compound A forms, Xenon light (1200 kLuxh, 25° C.)
Description: (§1) X-ray powder diffraction (XRPD) patterns were obtained using a Bruker Advance D8 in reflection geometry. Powders were analyzed using a zero background Si flat sample holder. The radiation used was Cu Kα (A=1.5418 Å). Patterns were measured between 2° and 40° 2theta. • Sample amount: 5-10 mg • Sample holder: zero background Si flat sample holder
as §1, with “radiation” for “radiation used”, “(λ=1.5418” for “(A=1.5418”

[2] = Excipient compatibility stress test (HPLC degradation products, color); design: key to CL color: A: No change; B: Slight discoloration; C: Medium discoloration; D: Strong discoloration; conditions: Compound A forms
[3] = Hygroscopicity (loss on drying by TGA and XRPD, as is and after storage at 92% / 80% RH); conditions: Compound A forms; for Loss on drying by TGA [%]: TGA temperature per cell: Modification A 110° C., amorphous 119° C., 4-hydroxybenzoate 200° C.
[4] = Solid state bulk stability stress test (HPLC degradation products, color, XRPD); design: key to CL color: A: No change; B: Slight discoloration; C: Medium discoloration; D: Strong discoloration; conditions: Compound A forms
[5] = Solubility after equilibration at 25° C. for 24 h, with final pH and XRPD of solid residues; conditions: Compound A forms
[6] = 2 weeks 50° C./75% RH, 1% in mixture 1
[7] = 2 weeks 50° C./75% RH, 1% in mixture 2
[8] = 2 weeks 50° C./75% RH, 1% in mixture 3
[9] = 2 weeks 50° C./75% RH, HGC capsule powder
[10] = 2 weeks 50° C./75% RH, HPMC capsule powder
[11] = 2 weeks 70° C./11% RH, 1% in mixture 1
[12] = 2 weeks 70° C./11% RH, 1% in mixture 2
[13] = 2 weeks 70° C./11% RH, 1% in mixture 3
[14] = 2 weeks 70° C./11% RH, HGC capsule powder
[15] = 2 weeks 70° C./11% RH, HPMC capsule powder
[16] = 2 weeks 70° C./75% RH, 1% in mixture 1
[17] = 2 weeks 70° C./75% RH, 1% in mixture 2
[18] = 2 weeks 70° C./75% RH, 1% in mixture 3
[19] = 2 weeks 70° C./75% RH, HPC capsule powder
[20] = 2 weeks 70° C./75% RH, HPMC capsule powder
[21] = Hygroscopicity, before RH storage
[22] = FaSSIF V2 pH 6.5, target concentration 20 mg/10 mL
[23] = FeSSIF V2 pH 5.8, target concentration 20 mg/10 mL
[24] = SGF pH 2.0, target concentration 20 mg/10 mL
[25] = Water, target concentration 20 mg/10 mL
[26] = pH 1.2, 100 mM HCl, target concentration 20 mg/10 mL
[27] = pH 3.0, 50 mM citrate buffer, target concentration 20 mg/10 mL
[28] = pH 4.7, 50 mM acetate buffer, target concentration 20 mg/10 mL
[29] = pH 6.8, 50 mM phosphate buffer with 50 mM Na taurocholate
[30] = pH 6.8, 50 mM phosphate buffer with 50 mM Na taurocholate, target concentration 20 mg/10 mL
[31] = pH 6.8, 50 mM phosphate buffer, target concentration 20 mg/10 mL

SMILES: CNC(=O)c1cnc(OCCO)c(F)c1-c1c(Cl)c(F)cc2c1C[C@](c1ccccc1)([C@@H]1CCCN1)O2 [Compound A Free form Modification A, 4-((2S,4S)-5-Chloro-6-fluoro-2-phenyl-2-((S)-pyrrolidin-2-yl)-2,3-dihydrobenzofuran-4-yl)-5-fluoro-6-(2-hydroxyethoxy)-N-methylnicotinamide]
- Bulk amber vial (XRPD) ([1]; amber vial): No change
- CL color ([1]; amber vial): A
- DP[%] degradation products, Bulk amber vial (HPLC) ([1]; amber vial): 1.0%
- Bulk clear vial (XPRD) ([1]; clear vial): No change
- CL color ([1]; clear vial): B
- DP[%] degradation products, Bulk clear vial (HPLC) ([1]; clear vial): 4.1%
- CL color [2, 6]: A
- DP[%] degradation products [2, 6]: 1.4%
- CL color [2, 7]: A
- DP[%] degradation products [2, 7]: 2.5%
- CL color [2, 8]: A
- DP[%] degradation products [2, 8]: 1.4%
- CL color [2, 9]: A
- DP[%] degradation products [2, 9]: 1.2%
- CL color [2, 10]: A
- DP[%] degradation products [2, 10]: 1.7%
- CL color [2, 11]: A
- DP[%] degradation products [2, 11]: 1.3%
- CL color [2, 12]: A
- DP[%] degradation products [2, 12]: 1.2%
- CL color [2, 13]: A
- DP[%] degradation products [2, 13]: 1.1%
- CL color [2, 14]: A
- DP[%] degradation products [2, 14]: 1.2%
- CL color [2, 15]: A
- DP[%] degradation products [2, 15]: 1.5%
- CL color [2, 16]: gel
- DP[%] degradation products [2, 16]: 6.1%
- CL color [2, 17]: gel
- DP[%] degradation products [2, 17]: 7.8%
- CL color [2, 18]: gel
- DP[%] degradation products [2, 18]: 11.8%
- CL color [2, 19]: gel
- DP[%] degradation products [2, 19]: 3.3%
- CL color [2, 20]: gel
- DP[%] degradation products [2, 20]: 6.6%
- XRPD ([3]; After 1 day at 80% RH): No change
- Loss on drying by TGA [%] ([3]; After 1 day at 80% RH): 0.7% (110° C.)
- XRPD ([3]; After 1 day at 92% RH): No change
- Loss on drying by TGA [%] ([3]; After 1 day at 92% RH): 1.0% (110° C.)
- Loss on drying by TGA [%] [3, 21]: 0.4% (110° C.)
- Bulk (XRPD) ([4]; 2 weeks 50° C./75% RH): No change
- CL color ([4]; 2 weeks 50° C./75% RH): A
- DP[%] degradation products, Bulk (HPLC) ([4]; 2 weeks 50° C./75% RH): 1.3%
- Bulk (XRPD) ([4]; 2 weeks 80° C., 11% RH): No change
- CL color ([4]; 2 weeks 80° C., 11% RH): A
- DP[%] degradation products, Bulk (HPLC) ([4]; 2 weeks 80° C., 11% RH): 1.4%
- Bulk (XRPD) ([4]; 2 weeks 80° C./75% RH): gel
- DP[%] degradation products, Bulk (HPLC) ([4]; 2 weeks 80° C./75% RH): 12.6%
- final pH ([5]; FaSSIF V2 pH 6.5): (8.07)
- Sol. (solubility) [5, 22]: ~2, mg/mL
- final pH ([5]; FeSSIF V2 pH 5.8): (5.98)
- Sol. (solubility) [5, 23]: >2, mg/mL
- final pH ([5]; SGF pH 2.0): (2.39)
- Sol. (solubility) [5, 24]: >2, mg/mL
- final pH ([5]; Water): (9.12)
- Sol. (solubility) [5, 25]: 0.27, mg/mL
- final pH ([5]; pH 1.2, 100 mM HCl): (1.16)
- Sol. (solubility) [5, 26]: >2, mg/mL
- final pH ([5]; pH 3.0, 50 mM citrate buffer): (3.10)
- Sol. (solubility) [5, 27]: >2, mg/mL
- final pH ([5]; pH 4.7, 50 mM acetate buffer): (4.86)
- Sol. (solubility) [5, 28]: >2, mg/mL
- final pH ([5]; pH 6.8, 50 mM phosphate buffer): (6.95)
- final pH [5, 29]: (6.91)
- Sol. (solubility) [5, 30]: >2, mg/mL
- Sol. (solubility) [5, 31]: >2, mg/mL

SMILES: CNC(=O)c1cnc(OCCO)c(F)c1-c1c(Cl)c(F)cc2c1C[C@](c1ccccc1)([C@@H]1CCCN1)O2 [Compound A Free form amorphous, 4-((2S,4S)-5-Chloro-6-fluoro-2-phenyl-2-((S)-pyrrolidin-2-yl)-2,3-dihydrobenzofuran-4-yl)-5-fluoro-6-(2-hydroxyethoxy)-N-methylnicotinamide]
- Bulk amber vial (XRPD) ([1]; amber vial): No change
- CL color ([1]; amber vial): A
- DP[%] degradation products, Bulk amber vial (HPLC) ([1]; amber vial): 1.0%
- Bulk clear vial (XPRD) ([1]; clear vial): No change
- CL color ([1]; clear vial): B
- DP[%] degradation products, Bulk clear vial (HPLC) ([1]; clear vial): 7.4%
- XRPD ([3]; After 1 day at 80% RH): No change
- Loss on drying by TGA [%] ([3]; After 1 day at 80% RH): 2.0% (119° C.)
- XRPD ([3]; After 1 day at 92% RH): No change
- Loss on drying by TGA [%] ([3]; After 1 day at 92% RH): 2.5% (119° C.)
- Loss on drying by TGA [%] [3, 21]: 1.1% (119° C.)
- Bulk (XRPD) ([4]; 2 weeks 50° C./75% RH): No change
- CL color ([4]; 2 weeks 50° C./75% RH): A
- DP[%] degradation products, Bulk (HPLC) ([4]; 2 weeks 50° C./75% RH): 2.1%
- Bulk (XRPD) ([4]; 2 weeks 80° C., 11% RH): No change
- CL color ([4]; 2 weeks 80° C., 11% RH): A
- DP[%] degradation products, Bulk (HPLC) ([4]; 2 weeks 80° C., 11% RH): 5.5%
- Bulk (XRPD) ([4]; 2 weeks 80° C./75% RH): gel
- DP[%] degradation products, Bulk (HPLC) ([4]; 2 weeks 80° C./75% RH): 15.3%
- final pH ([5]; FaSSIF V2 pH 6.5): (7.98)
- Sol. (solubility) [5, 22]: >2, mg/mL
- final pH ([5]; FeSSIF V2 pH 5.8): (5.93)
- Sol. (solubility) [5, 23]: >2 mg/mL
- final pH ([5]; SGF pH 2.0): (2.37)
- Sol. (solubility) [5, 24]: >2, mg/mL
- final pH ([5]; Water): (9.26)
- Sol. (solubility) [5, 25]: 0.28, mg/mL
- final pH ([5]; pH 1.2, 100 mM HCl): (1.19)
- Sol. (solubility) [5, 26]: >2 mg/mL
- final pH ([5]; pH 3.0, 50 mM citrate buffer): (3.13)
- Sol. (solubility) [5, 27]: >2, mg/mL
- final pH ([5]; pH 4.7, 50 mM acetate buffer): (4.89)
- Sol. (solubility) [5, 28]: >2, mg/mL
- final pH ([5]; pH 6.8, 50 mM phosphate buffer): (6.97)
- final pH [5, 29]: (6.87)
- Sol. (solubility) [5, 30]: >2, mg/mL
- Sol. (solubility) [5, 31]: >2, mg/mL

Reference: patent publication US20250011307A1, “CRYSTALLINE FORMS OF BIARYL YAP/TAZ-TEAD PROTEIN-PROTEIN INTERACTION INHIBITORS” (Novartis AG, priority 2021, published 2025)
